Results published in PubChem BioAssay (NCI).
Where “and” joins values, the source holds several entries; their conditions need not be identical. Equal entries are not always repeated.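 Cells were grown in 96-well plates and exposed to each compound for 48 hours at five concentrations; endpoints were interpolated linearly between bracketing concentrations, or set to the highest concentration if not reached. Here, GI50 denotes the concentration required for 50% inhibition of growth. TGI marks complete inhibition of growth.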

How the values were obtained:
Assay in all cases: DTP human tumour cell line panel, 48 h
A498 renal = test system: A498 renal
MALME-3M melanoma = test system: MALME-3M melanoma
MDA-MB-231 breast = test system: MDA-MB-231 breast
DU-145 prostate = test system: DU-145 prostate
K-562 leukemia = test system: K-562 leukemia
SK-OV-3 ovarian = test system: SK-OV-3 ovarian
U251 CNS = test system: U251 CNS
HOP-62 NSCLC = test system: HOP-62 NSCLC
UACC-257 melanoma = test system: UACC-257 melanoma
HCT-15 colon = test system: HCT-15 colon

Row | Structure (SMILES) | GI50 (A498 renal) | TGI (A498 renal) | GI50 (MALME-3M melanoma) | TGI (MALME-3M melanoma) | GI50 (MDA-MB-231 breast) | TGI (MDA-MB-231 breast) | GI50 (DU-145 prostate) | TGI (DU-145 prostate) | GI50 (K-562 leukemia) | TGI (K-562 leukemia) | GI50 (SK-OV-3 ovarian) | TGI (SK-OV-3 ovarian) | GI50 (U251 CNS) | TGI (U251 CNS) | GI50 (HOP-62 NSCLC) | TGI (HOP-62 NSCLC) | GI50 (UACC-257 melanoma) | TGI (UACC-257 melanoma) | GI50 (HCT-15 colon) | TGI (HCT-15 colon)
1 | CCN(Cc1ccccc1)C1CCN(Cc2cc(Br)ccc2O)CC1 | 9.29 µM | > 100 µM | 24 µM | 53 µM | 31.6 µM | > 100 µM | > 100 µM | > 100 µM | 26.6 µM | > 100 µM | 77.4 µM | > 100 µM | 32.5 µM | > 100 µM | > 100 µM | > 100 µM | 26 µM | > 100 µM | 20.1 µM | > 100 µM
2 | CCc1ccc(CCC(=O)Nc2ncc(Cc3ccc(Cl)cc3)s2)o1 | 0.208 µM | 0.844 µM | 0.466 µM | > 100 µM | 0.699 µM | > 100 µM | 0.329 µM | > 100 µM | 0.365 µM | > 100 µM | 0.449 µM | > 100 µM | 0.371 µM | > 100 µM | 0.623 µM | > 100 µM | – | > 100 µM | 0.356 µM | > 100 µM
3 | Nc1nc([Se])c2ncn(C3OC(CO)C(O)C3O)c2n1 (configuration not stated) | 17 µM | > 100 µM | > 100 µM | > 100 µM | 2.81 µM | 69.8 µM | 3.31 µM | > 100 µM | 5.59 µM | > 100 µM | 6.96 µM | > 100 µM | 73.3 µM | > 100 µM | 3.73 µM | > 100 µM | 37.5 µM | > 100 µM | 7.84 µM | > 100 µM
4 | COc1cc(/C=C/C(=O)/C=C/c2ccc(-n3ccnc3C)cc2)ccc1O | 10.4 µM | 23.7 µM | 4.63 µM | 30.5 µM | 2.87 µM | 9.03 µM | 2.82 µM | 7.55 µM | 3.32 µM | > 100 µM | 8.14 µM | > 100 µM | 2.31 µM | 6.4 µM | 3.18 µM | 10.5 µM | 3.33 µM | 13.5 µM | 2.6 µM | 8.47 µM
5 | Cc1ccccc1NC(=O)c1sc2nc(C)c(C(=O)/C=C/c3ccccc3)cc2c1N | 1.23 µM | 4.27 µM | 1.43 µM | 6.11 µM | 1.8 µM | 11 µM | 1.34 µM | 4.28 µM | 0.731 µM | > 50 µM | 2.5 µM | 25.9 µM | 0.951 µM | 1.99 µM | 1.15 µM | 2.7 µM | 1.83 µM | 8.71 µM | 0.836 µM | 1.94 µM
6 | OC(COC(c1ccccc1)(c1ccccc1)c1ccccc1)C(O)CC1SCCS1 (configuration not stated) | – | 28.4 µM | – | 26.3 µM | – | 35.2 µM | – | 41.5 µM | – | > 100 µM | – | 48.9 µM | – | 62.4 µM | – | 30.7 µM | – | 51.8 µM | – | 73.9 µM
7 | CC(C)(C)C1CCC2c3c([nH]c4ccccc34)C3C(=O)N(c4ccc(Cl)cc4)C(=O)C3C2C1 (configuration not stated) | – | > 10 µM | – | > 10 µM | 56.1 µM and > 10 µM | > 100 µM | > 100 µM | > 100 µM | 21.1 µM and > 10 µM | 46.1 µM and > 10 µM | > 100 µM | > 100 µM | 56.5 µM and > 10 µM | > 100 µM | > 100 µM | > 100 µM | > 100 µM | > 100 µM | 52.3 µM and > 10 µM | > 100 µM
8 | CCC(C)[C@H](NC(=O)Nc1cc(C(F)(F)F)cc(C(F)(F)F)c1)C(=O)N[C@@H](Cc1cn(C)cn1)C(=O)OC (some centres not stated) | 1.6 µM | 3.4 µM | 1.41 µM | 2.01 µM | 0.619 µM | 1.12 µM | 1.07 µM | 1.83 µM | 1.06 µM | 2.44 µM | 1.38 µM | 1.82 µM | 1.33 µM | 1.8 µM | 0.919 µM | 1.82 µM | 1.3 µM | 1.85 µM | 1.4 µM | 2.21 µM
